The values that follow come from ChEMBL document CHEMBL1201862, “PubChem BioAssay data set” (2004).

Test systems include BT-549; Hs-578T; MDA-N; T47D.
Holding throughout (experiment): NCI tumour cell line growth inhibition, 48 h

Structures are written as SMILES.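 Each compound was tested at five concentrations against cells in 96-well plates for 48 hours. At the GI50, growth is halved.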 Active and inactive are the calls of the source. Cut-off read from the data, not from the text of the source: active = GI50 up to about 1.1 µM and inactive = higher.

For the compound `CC(C)(C)c1ccc(OCCOc2ccc(C(C)(C)C)cc2NC=O)c(NC=O)c1`, the GI50 in the assay on BT-549 was 15.6 µM (inactive); with Hs-578T, 12.5 µM (inactive); with MDA-N, 9.12 µM (inactive); with T47D, 6.01 µM (inactive).

Consider `CC1(C)OCC(C2OC3OC(C)(C)OC3C2c2ccccc2)O1` (centres undefined), for which the GI50 in the assay with Hs-578T is 20.7 µM (inactive); with MDA-N, 37 µM (inactive); in the assay on T47D, 38.2 µM (inactive).

For the compound `COC(=O)/C=C/c1cnc2c(c1)oc(=O)n2CCc1ccccn1`, the GI50 in the assay with BT-549 is 42.8 µM (inactive); with Hs-578T it was > 100 µM (inactive); in the assay on MDA-N, 23.8 µM (inactive); in the assay on T47D, 50.6 µM (inactive).

Turning to `CO[C@@]12C[C@@H](C)C3=CCC(C)=C3CC1=C(C)C(=O)O2`, the GI50 in the assay on BT-549 and in the assay with Hs-578T was > 100 µM (inactive) in each case.

Consider `CC1(C)CCCOc2cccc(c2)OCCCC(C)(C)C1=O`, for which the GI50 with BT-549 was 29.8 µM (inactive); in the assay with Hs-578T it was 39.7 µM (inactive); with MDA-N, 45.2 µM (inactive); in the assay with T47D it was 31.8 µM (inactive).

Regarding `C[Si](C)(OCCS(=O)(=O)O)C1S(=O)(=O)OCCOS1(=O)=O`, the GI50 with BT-549 is 27.4 µM (inactive); in the assay on MDA-N, 92 µM (inactive); in the assay on T47D it was 36.6 µM (inactive).

Regarding `O=C1C(S(=O)(=O)c2ccccc2)=C(CS(=O)(=O)c2ccccc2)[C@@H](OCc2ccccc2)[C@@H]1OCc1ccccc1`, the GI50 in the assay with BT-549 is 13.5 µM (inactive); in the assay on Hs-578T it was 23 µM (inactive); in the assay with MDA-N it was 23 µM (inactive); in the assay on T47D it was 32.7 µM (inactive).

`CN(NC(=O)c1ccc(Cl)cc1)C1=NCCCCN1`: the GI50 in the assay with BT-549, with Hs-578T, in the assay with MDA-N and with T47D was > 100 µM (inactive) each time.

With `CC1CCCN1CCCOC(=O)c1ccc(OC2C=CCCC2)cc1` (centres undefined), the GI50 with BT-549 was 40.6 µM (inactive); in the assay with Hs-578T it was 32.4 µM (inactive); in the assay with MDA-N, 39.5 µM (inactive); in the assay on T47D, 13.5 µM (inactive).

With `O=c1[nH]nc(Cc2ccccc2)n1/N=C/c1ccc([N+](=O)[O-])cc1`, the GI50 in the assay with BT-549, in the assay with Hs-578T, in the assay on MDA-N and in the assay on T47D was > 100 µM (inactive) in each case.

For `CC(=O)On1c(-c2ccccc2-c2nc3ccccc3n2OC(C)=O)nc2ccccc21`, the GI50 with BT-549 is 30.3 µM (inactive); with Hs-578T it was 37.8 µM (inactive); in the assay with MDA-N, 21 µM (inactive); with T47D, 17.7 µM (inactive).

On to `CC(=O)C1C(=O)C(=O)N(c2ccc(Cl)c(Cl)c2)C1=O` (centres undefined), for which the GI50 with BT-549, with MDA-N and in the assay with T47D was > 100 µM (inactive) each time.

For `C=C(CC[C@@H](C)[C@H]1CC[C@@]2(C)C3=C(CC[C@]12C)[C@@]1(C)CC[C@H](O)[C@@H](C)C1CC3)C(C)C` (some centres undefined), the GI50 was 1.48 µM (inactive) with BT-549, 1.6 µM (inactive) in the assay on Hs-578T and 1.17 µM (inactive) with MDA-N.

Turning to `COCCOCCOC1=C(Cl)C(=O)c2c(O)ccc(O)c2C1=O`, the GI50 with BT-549 is 2.15 µM (inactive); in the assay with Hs-578T, 3.11 µM (inactive); in the assay with MDA-N, 5.02 µM (inactive); in the assay with T47D, 2.54 µM (inactive).

On to `COc1ccc(C(=O)Oc2c(C#N)sc3c2c(=O)n(-c2ccccc2)c(=S)n3-c2ccccc2)cc1`, for which the figures for the GI50 with Hs-578T, with MDA-N and in the assay with T47D were 25.9 µM (inactive), > 10 µM (inactive) and 33.6 µM (inactive), respectively.

`OCCN(CCO)c1ncnc2[nH]cnc12`: the GI50 in the assay on BT-549 was > 100 µM (inactive); in the assay on Hs-578T, 53.6 µM (inactive); in the assay with MDA-N it was > 100 µM (inactive); in the assay on T47D it was > 100 µM (inactive).

With `C/C(=C1\C(=O)C(c2ccccc2)N(c2ccccc2)C1=O)c1ccc(Cl)cc1` (centres undefined), the GI50 in the assay with BT-549 is 19.8 µM (inactive); in the assay with Hs-578T it was 18.7 µM (inactive); in the assay on MDA-N it was 19.7 µM (inactive); with T47D it was 19.4 µM (inactive).

Turning to `NC(=O)C(=O)c1ncn(Cc2ccccc2)c1N`, the GI50 with Hs-578T, with MDA-N and with T47D was > 100 µM (inactive) each time.

As to `COC(=O)Nc1nc2ccc(S(=O)(=O)SC)cc2[nH]1`, the GI50 with BT-549 was 10.1 µM (inactive); with Hs-578T, 20.5 µM (inactive); in the assay with T47D, 9.55 µM (inactive).

For the compound `CC(C)(C)OC(=O)N1CCCC1C(=O)NC(c1ccccc1)c1ccccc1` (centres undefined), the GI50 in the assay with BT-549, in the assay with Hs-578T, in the assay with MDA-N and in the assay on T47D was > 100 µM (inactive) throughout.

In the case of `COC(=O)[C@@H](Nc1ccccc1)[C@@]1(C(=O)OC)SC12c1ccccc1-c1ccccc12`, the GI50 is 75.5 µM (inactive) in the assay on BT-549, > 100 µM (inactive) with Hs-578T, 61.1 µM (inactive) in the assay with MDA-N and 25.5 µM (inactive) in the assay with T47D.

With `COC(=O)CCc1ccc2c(c1)[C@H](C(=O)OC)[C@@H](c1ccc(O)cc1)O2`, the GI50 is 74.5 µM (inactive) in the assay with BT-549, > 100 µM (inactive) with Hs-578T, > 100 µM (inactive) in the assay on MDA-N and 78.2 µM (inactive) in the assay on T47D.

For `COC1C(O)C(C)OC(O[C@@H]2C[C@H]3CC[C@@H]4[C@H](CC[C@]5(C)[C@@H](C6=CC(=O)OC6)CC[C@]45O)[C@@]3(C)[C@H](O)C2)C1O` (some centres undefined), the GI50 in the assay with BT-549 was < 0.0246 µM (active); with Hs-578T, 0.182 µM (active); in the assay with MDA-N it was 0.0166 µM (active); in the assay on T47D, 0.111 µM (active).

Turning to `Cc1ccc(/C=C2\Cc3cccc(C)c3C2=O)c(C(=O)O)c1`, the GI50 was 62.7 µM (inactive) in the assay with BT-549, > 100 µM (inactive) in the assay on Hs-578T, > 100 µM (inactive) in the assay with MDA-N and 42.7 µM (inactive) in the assay on T47D.

On to `CCN1CCCCCCCCCC(=N/O)/C(=N\O)C1`, for which the GI50 with BT-549, with MDA-N and in the assay with T47D was > 100 µM (inactive) in each case.

With `CC1(C)Oc2ccc3c(=O)cc(-c4ccc(F)cc4)oc3c2C1C(=O)O` (centres undefined), the GI50 in the assay on Hs-578T, with MDA-N and in the assay with T47D was > 100 µM (inactive) in each case.

Regarding `C(=N\c1ccc(-c2cc(-c3ccccc3)nc3ccc4ccccc4c23)cc1)/c1ccccc1`, the GI50 was 5.86 µM (inactive) in the assay on Hs-578T and 24.4 µM (inactive) in the assay with MDA-N.

Consider `COc1ccc(CCn2cnc3ccccc32)cc1`, for which the GI50 in the assay with BT-549, in the assay with Hs-578T and in the assay with MDA-N was > 100 µM (inactive) each time.

On to `CN(Cc1cnc2nc(N)nc(N)c2n1)c1ccc(C(=O)NC(CCC(=O)O)C(=O)O)cc1` (centres undefined), for which the GI50 in the assay with BT-549 is 4.07 µM (inactive).

As for `CCN(CC)Cc1sc2nc3ccccc3n2c1-c1ccc(OC)cc1`, the figures for the GI50 in the assay on BT-549, in the assay on Hs-578T and in the assay on MDA-N were 32.7 µM (inactive), 34.9 µM (inactive) and 2.61 µM (inactive), respectively.

For `CC[C@@]1(N(C)C)C(=O)OCc2c1cc1n(c2=O)Cc2cc3ccccc3nc2-1`, the GI50 was 20.3 µM (inactive) in the assay on BT-549 and 18.9 µM (inactive) with T47D.

Regarding `CC(C)C1=CC23CCC4C(C)(C(=O)O)CCCC4(C)C2CC1C1C(=O)N(CCCCCCN2C(=O)C4C5CC6C7(C)CCCC(C)(C(=O)O)C7CCC6(C=C5C(C)C)C4C2=O)C(=O)C13` (centres undefined), the GI50 with Hs-578T is 12.3 µM (inactive); with MDA-N, 11.1 µM (inactive); with T47D, 21.1 µM (inactive).

On to `C#CCCCC(=C)C[C@H](OCc1ccccc1)[C@H]1OC(=O)[C@@H]1C`, for which the GI50 is > 100 µM (inactive) in the assay with BT-549 and 22.9 µM (inactive) with MDA-N.
